The IC90 is the point of the concentration-response curve where the effect stands at 90%.

Each structure is given as a SMILES string. Structures can show the parent of a compound that is named as a salt.

For the first assay, the system named is Acinetobacter baumannii ATCC17961. Briefly: Antimicrobial susceptibility testing: 90% growth inhibitory concentration (IC90) determination. Type of assay: cell-based. Particulars: Acinetobacter baumannii ATCC17961; Iso-Sensitest broth; growth by OD 600 nm over 16 h; 90% growth inhibitory concentration; read-out: ATCC 17961 IC90. Here is the method:
Antimicrobial Susceptibility Testing:
90% Growth Inhibitory Concentration (IC90) Determination
The in vitro antimicrobial activity of the compounds was determined according to the following procedure:
The assay used a 10-points Iso-Sensitest broth medium to measure quantitatively the in vitro activity of the compounds against Acinetobacter baumannii ATCC17961.
Stock compounds in DMSO were serially twofold diluted (e.g. range from 50 to 0.097 μM final concentration) in 384 wells microtiter plates and inoculated with 49 μl the bacterial suspension in Iso-Sensitest medium to have a final cell concentration of ˜5×10^(5) CFU/ml in a final volume/well of 50 ul/well. Microtiter plates were incubated at 35±2° C.
Bacterial cell growth was determined with the measurement of optical density at λ=600 nm each minutes over a time course of 16 h. Growth inhibition was calculated during the logarithmic growth of the bacterial cells with determination of the concentration inhibiting 50% (IC50) and 90% (IC90) of the growth.
Table 1 provides the 90% growth inhibitory concentrations (IC90) in micromoles per liter of the compounds of present invention obtained against the strain Acinetobacter baumannii ATCC17961.
For the compound `Cn1c(-c2cn(-c3ccc(N)cn3)nc2C(F)(F)F)cnc1C(=O)Nc1ccc(C(=O)N2CCN(C(=O)[C@@H]3[C@@H](O)CC[N+]3(C)C)CC2)c(Cl)c1` (racemic) [Example D2, 5-[1-(5-amino-2-pyridyl)-3-(trifluoromethyl)pyrazol-4-yl]-N-[3-chloro-4-[4-[(2S,3S)-3-hydroxy-1,1-dimethyl-pyrrolidin-1-ium-2-carbonyl]piperazine-1-carbonyl]phenyl]-1-methyl-imidazole-2-carboxamide; formate], the IC90 is 400 nM.

As to `Cn1c(-c2cn(-c3ccc(N)cn3)nc2C(F)(F)F)cnc1C(=O)Nc1ccc(C(=O)N2CCN(C(=O)[C@@H]3CC[N+](C)(C)C[C@@H]3O)CC2)c(Cl)c1` (stereo in doubt) [Example D5, 5-[1-(5-amino-2-pyridyl)-3-(trifluoromethyl)pyrazol-4-yl]-N-[3-chloro-4-[4-[(3R,4R)-3-hydroxy-1,1-dimethyl-piperidin-1-ium-4-carbonyl]piperazine-1-carbonyl]phenyl]-1-methyl-imidazole-2-carboxamide; formate], the IC90 was 240 nM.

For the compound `Cn1c(-c2cn(-c3ccc(N)cn3)nc2C(F)(F)F)cnc1C(=O)Nc1ccc(C(=O)N2CCN(C(=O)[C@@H]3CC[N+](C)(C)C[C@H]3O)CC2)c(Cl)c1` (stereo in doubt) [Example D6, 5-[1-(5-amino-2-pyridyl)-3-(trifluoromethyl)pyrazol-4-yl]-N-[3-chloro-4-[4-[(3S,4R)-3-hydroxy-1,1-dimethyl-piperidin-1-ium-4-carbonyl]piperazine-1-carbonyl]phenyl]-1-methyl-imidazole-2-carboxamide; formate], the 90% effect concentration (IC90) came out at 370 nM.

As for `Cn1c(-c2cn(-c3ccc(N)cn3)nc2C(F)(F)F)cnc1C(=O)Nc1ccc(C(=O)N2CCN(C(=O)[C@H]3CC[N+](C)(C)C[C@H]3O)CC2)c(Cl)c1` (stereo in doubt) [Example D7, 5-[1-(5-amino-2-pyridyl)-3-(trifluoromethyl)pyrazol-4-yl]-N-[3-chloro-4-[4-[(3S,4S)-3-hydroxy-1,1-dimethyl-piperidin-1-ium-4-carbonyl]piperazine-1-carbonyl]phenyl]-1-methyl-imidazole-2-carboxamide; formate], the IC90 is 400 nM.

Turning to `Cn1c(-c2cn(-c3ccc(N)cn3)nc2C(F)(F)F)cnc1C(=O)Nc1ccc(C(=O)N2CCN(C(=O)[C@H]3CC[N+](C)(C)C[C@@H]3O)CC2)c(Cl)c1` (stereo in doubt) [Example D8, 5-[1-(5-amino-2-pyridyl)-3-(trifluoromethyl)pyrazol-4-yl]-N-[3-chloro-4-[4-[(3R,4S)-3-hydroxy-1,1-dimethyl-piperidin-1-ium-4-carbonyl]piperazine-1-carbonyl]phenyl]-1-methyl-imidazole-2-carboxamide; formate], the IC90 is 230 nM.

Turning to `Cn1c(-c2cn(-c3ccc(C(N)=O)cn3)nc2C(F)(F)F)cnc1C(=O)Nc1ccc(C(=O)N2CCN(C(=O)C3CC[N+](C)(C)CC3)CC2)c(Cl)c1` [Example A2, 6-[4-[2-[[3-chloro-4-[4-(1,1-dimethylpiperidin-1-ium-4-carbonyl)piperazine-1-carbonyl]phenyl]carbamoyl]-3-methyl-imidazol-4-yl]-3-(trifluoromethyl)pyrazol-1-yl]pyridine-3-carboxamide; formate], the IC90 came to 980 nM.

With `CNC(=O)c1ccc(-n2cc(-c3cnc(C(=O)Nc4ccc(C(=O)N5CCN(C(=O)C6CC[N+](C)(C)CC6)CC5)c(Cl)c4)n3C)c(C(F)(F)F)n2)nc1` [Example A3, 6-[4-[2-[[3-chloro-4-[4-(1,1-dimethylpiperidin-1-ium-4-carbonyl)piperazine-1-carbonyl]phenyl]carbamoyl]-3-methyl-imidazol-4-yl]-3-(trifluoromethyl)pyrazol-1-yl]-N-methyl-pyridine-3-carboxamide; formate], the IC90 was 820 nM.

As to `Cc1ccc(-n2cc(-c3cnc(C(=O)Nc4ccc(C(=O)N5CCN(C(=O)C6CC[N+](C)(C)CC6)CC5)c(Cl)c4)n3C)c(C(F)(F)F)n2)nc1` [Example A4, N-[3-chloro-4-[4-(1,1-dimethylpiperidin-1-ium-4-carbonyl)piperazine-1-carbonyl]phenyl]-1-methyl-5-[1-(5-methyl-2-pyridyl)-3-(trifluoromethyl)pyrazol-4-yl]imidazole-2-carboxamide; formate], the 90% effect concentration (IC90) came to 250 nM.

In the case of `Cn1c(-c2cn(-c3ccc(N)cn3)nc2C(F)F)cnc1C(=O)Nc1ccc(C(=O)N2CCN(C(=O)C3CC[N+](C)(C)CC3)CC2)c(Cl)c1` [Example A5, 5-[1-(5-amino-2-pyridyl)-3-(difluoromethyl)pyrazol-4-yl]-N-[3-chloro-4-[4-(1,1-dimethylpiperidin-1-ium-4-carbonyl)piperazine-1-carbonyl]phenyl]-1-methyl-imidazole-2-carboxamide; 2,2,2-trifluoroacetate], the 90% effect concentration (IC90) came out at 760 nM.

The same assay, now with this note: Acinetobacter baumannii, ATCC17961, 16 h, read-out: ATCC 17961 IC90.
As to `Cn1c(-c2cn(-c3ncccn3)nc2C(F)(F)F)cnc1C(=O)Nc1ccc(C(=O)N[C@H]2[C@@H]3CN(C(=O)[C@@H]4C[C@@H](O)C[N+]4(C)C)C[C@@H]32)c(Cl)c1` (racemic) [Example B8, rac-(2R,4S)-2-((1R,5S,6S)-6-(2-chloro-4-(1-methyl-5-(1-(pyrimidin-2-yl)-3-(trifluoromethyl)-1H-pyrazol-4-yl)-1H-imidazole-2-carboxamido)benzamido)-3-azabicyclo[3.1.0]hexane-3-carbonyl)-4-hydroxy-1,1-dimethylpyrrolidin-1-ium], the IC90 turned out to be 1500 nM.

As for `Cn1c(-c2cn(-c3ccc(N)cn3)nc2C(F)(F)F)cnc1C(=O)Nc1ccc(C(=O)N[C@H]2[C@@H]3CN(C(=O)N[C@@H]4C[N+](C)(C)C[C@H]4O)C[C@@H]32)c(Cl)c1` (racemic) [Example D18, (exo)-6-[[4-[[5-[1-(5-Aminopyridin-2-yl)-3-(trifluoromethyl)pyrazol-4-yl]-1-methylimidazole-2-carbonyl]amino]-2-chlorobenzoyl]amino]-N-[rac-(trans)-4-hydroxy-1,1-dimethylpyrrolidin-1-ium-3-yl]-3-azabicyclo[3.1.0]hexane-3-carboxamide; formate], the concentration for an effect of 90% (IC90) turned out to be 290 nM.

Regarding `COc1ccc(-n2cc(-c3cnc(C(=O)Nc4ccc(C(=O)N5CCN(C(=O)C6CC[N+](C)(C)CC6)CC5)c(Cl)c4)n3C)c(C(F)(F)F)n2)nc1` [Example A1, N-[3-Chloro-4-[4-(1,1-dimethylpiperidin-1-ium-4-carbonyl)piperazine-1-carbonyl]phenyl]-5-[1-(5-methoxy-2-pyridyl)-3-(trifluoromethyl)pyrazol-4-yl]-1-methyl-imidazole-2-carboxamide; formate], the IC90 is 95 nM.

In the case of `Cn1c(-c2cn(-c3ncccn3)nc2C(F)(F)F)cnc1C(=O)Nc1ccc(C(=O)N2CCN(C(=O)C[N+]3(C)CC[C@@H](O)C3)CC2)c(Cl)c1` (stereo partly drawn) [Example A6, N-[3-chloro-4-[4-[2-[(3R)-3-hydroxy-1-methyl-pyrrolidin-1-ium-1-yl]acetyl]piperazine-1-carbonyl]phenyl]-1-methyl-5-[1-pyrimidin-2-yl-3-(trifluoromethyl)pyrazol-4-yl]imidazole-2-carboxamide; formate], the IC90 is 1300 nM.
